Measured values: patent US6469028B1, “Synthesis and use of retinoid compounds having negative hormone and/or anatgonist activities” (Allergan, Inc., priority 1995, dated 2002)

Columns and labels:
[1] = test system: tissue transglutaminase (TGase) gene in HL-60 cells; test: TGase activity in HL-60 cells; assay type: cell-based; conditions: TGase induced by RXR agonists
Source text: This same mechanism can account for the observation that AGN 193109 can repress the activity of the tissue transglutaminase (TGase) gene in HL-60 cells. A retinoid response element consisting of three canonical retinoid half sites spaced by 5 and 7 base pairs has been identified in the transcription control region of this gene. While TGase can be induced by RXR-selective agonists, it is not responsive to RAR-selective agonists. The TGase retinoid response element is bound by an RAR/RXR heterodimer (Davies et al. in Press). […] This AGN 193109 mediated repression can be accounted for by the ability of this negative hormone to sequester NCPs to the RAR component of the heterodimer, thereby repressing the activity of the associated RXR.

RARγ = biological target: T1, RARγ (Homo sapiens, UniProt P13631); test: Example 16: transactivation, MTV-TREp-Luc in HeLa cells; assay type: cell-based
T1 sequence (P13631 1-454): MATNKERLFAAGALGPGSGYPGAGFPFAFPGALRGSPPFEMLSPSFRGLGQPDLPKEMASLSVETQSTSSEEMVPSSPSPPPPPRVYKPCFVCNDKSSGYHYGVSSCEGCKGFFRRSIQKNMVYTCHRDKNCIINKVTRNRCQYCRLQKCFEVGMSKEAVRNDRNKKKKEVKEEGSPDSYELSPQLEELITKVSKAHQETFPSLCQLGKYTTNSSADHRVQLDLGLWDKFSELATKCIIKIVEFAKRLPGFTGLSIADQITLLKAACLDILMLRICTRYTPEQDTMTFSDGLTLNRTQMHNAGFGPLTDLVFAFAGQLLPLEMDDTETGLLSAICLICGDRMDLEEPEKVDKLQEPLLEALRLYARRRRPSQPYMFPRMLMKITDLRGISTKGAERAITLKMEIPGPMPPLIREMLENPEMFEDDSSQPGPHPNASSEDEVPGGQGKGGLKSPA

In the case of `Cc1ccc(C2=CCC(C)(C)c3ccc(C#Cc4ccc(C(=O)O)cc4)cc32)cc1` [Compound 60, 4-[(5,6-dihydro-5,5-dimethyl-8-(4-methylphenyl)-2-naphthalenyl)ethynyl]benzoic acid], the TGase activity [1] is reported as “able to repress TGase activity induced by RXR agonists”, the “inhibition of the response to 10^−9 M AGN 191183” value (RARγ; 10^−9 M AGN 193109, HeLa cells, preliminary experiments) is reported as “relatively ineffective” and the luciferase activity (RARγ; AGN 193109 10^−11 and 10^−10 M with AGN 191183 10^−10 or 10^−9 M) is reported as “stimulation of luciferase activity over that of AGN 191183 alone”.
